Source: article PMC3677594, “Characterization of a novel Entamoeba histolytica strain from Burkina Faso, Africa, possessing a unique hexokinase-2 gene” (Parasite, 2011)
Where a chain is given by its changes, count along the chain named.

How the values were obtained:
Format in all cases: biochemical
[1] = target: T1, HXK-2 (Entamoeba dispar, UniProt O09488); test: in-gel glucokinase activity stain after IEF or starch gel; conditions: ATP; G6PDH-coupled, NADPH-formazan read-out
T1 construct: gene hxk2; native full-length enzyme in freeze-thaw lysate, resolved by IEF or starch gel
T1 sequence (O09488 1-445): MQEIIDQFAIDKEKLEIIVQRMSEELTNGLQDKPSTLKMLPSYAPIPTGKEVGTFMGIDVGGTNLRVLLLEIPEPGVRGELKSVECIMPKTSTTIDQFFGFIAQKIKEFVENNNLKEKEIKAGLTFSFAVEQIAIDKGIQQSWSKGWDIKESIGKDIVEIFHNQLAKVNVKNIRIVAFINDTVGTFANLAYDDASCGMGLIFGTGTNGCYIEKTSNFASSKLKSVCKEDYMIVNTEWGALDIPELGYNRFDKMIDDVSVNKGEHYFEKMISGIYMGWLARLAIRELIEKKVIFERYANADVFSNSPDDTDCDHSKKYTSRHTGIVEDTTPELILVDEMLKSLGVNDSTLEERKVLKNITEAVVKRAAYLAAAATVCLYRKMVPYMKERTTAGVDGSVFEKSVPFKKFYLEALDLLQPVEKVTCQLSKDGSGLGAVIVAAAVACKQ

[2] = target: T2, HXK-2 (Entamoeba histolytica, UniProt A0A8U0WP47); test: as above; conditions: ATP; G6PDH-coupled, NADPH-formazan read-out
T2 construct: gene EHI_098560; native full-length enzyme in freeze-thaw lysate, resolved by IEF or starch gel
T2 sequence (A0A8U0WP47 1-445): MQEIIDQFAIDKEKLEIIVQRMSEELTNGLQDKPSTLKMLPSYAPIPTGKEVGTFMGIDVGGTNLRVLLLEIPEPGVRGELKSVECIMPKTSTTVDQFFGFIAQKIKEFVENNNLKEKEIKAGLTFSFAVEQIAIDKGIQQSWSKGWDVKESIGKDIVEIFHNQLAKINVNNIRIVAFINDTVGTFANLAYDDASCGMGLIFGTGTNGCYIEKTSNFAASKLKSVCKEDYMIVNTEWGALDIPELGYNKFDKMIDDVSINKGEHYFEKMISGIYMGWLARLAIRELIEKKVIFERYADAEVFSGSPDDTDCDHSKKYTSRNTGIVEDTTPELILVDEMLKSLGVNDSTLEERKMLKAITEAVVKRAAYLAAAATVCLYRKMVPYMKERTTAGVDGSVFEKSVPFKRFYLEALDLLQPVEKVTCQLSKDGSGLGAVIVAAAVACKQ

[3] = target: T3, HXK-1 (Entamoeba nuttalli, UniProt C5NNG5); test: as above; conditions: ATP; G6PDH-coupled, NADPH-formazan read-out
T3 construct: native full-length enzyme in freeze-thaw lysate, resolved by IEF or starch gel
T3 sequence (C5NNG5 1-445): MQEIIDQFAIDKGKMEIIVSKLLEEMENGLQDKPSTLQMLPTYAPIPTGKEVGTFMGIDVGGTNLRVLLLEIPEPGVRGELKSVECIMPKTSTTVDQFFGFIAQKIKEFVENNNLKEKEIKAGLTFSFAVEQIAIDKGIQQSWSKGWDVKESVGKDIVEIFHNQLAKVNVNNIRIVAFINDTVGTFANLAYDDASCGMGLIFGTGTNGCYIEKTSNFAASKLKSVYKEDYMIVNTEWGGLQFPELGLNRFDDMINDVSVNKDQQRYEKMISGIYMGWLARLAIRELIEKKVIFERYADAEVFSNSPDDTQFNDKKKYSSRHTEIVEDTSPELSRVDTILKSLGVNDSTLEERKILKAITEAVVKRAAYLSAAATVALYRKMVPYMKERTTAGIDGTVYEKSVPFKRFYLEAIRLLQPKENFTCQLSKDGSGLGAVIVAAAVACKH

[4] = target: T4, HXK-2 (Entamoeba nuttalli, UniProt C5NNG6); test: as above; conditions: ATP; G6PDH-coupled, NADPH-formazan read-out
T4 construct: gene ENUP19_0206G0024; native full-length enzyme in freeze-thaw lysate, resolved by IEF or starch gel
T4 sequence (C5NNG6 1-445): T2 sequence (A0A8U0WP47 1-445) with I153V, I168V, I232V, M354I

[5] = target: T5, HXK-1 (Entamoeba dispar, UniProt O09487); test: as above; conditions: ATP; G6PDH-coupled, NADPH-formazan read-out
T5 construct: gene hxk1; native full-length enzyme in freeze-thaw lysate, resolved by IEF or starch gel

[6] = target: T6, HXK-1 (Entamoeba histolytica, UniProt A0A8U0WP42); test: as above; conditions: ATP; G6PDH-coupled, NADPH-formazan read-out
T6 construct: gene EHI_098290; native full-length enzyme in freeze-thaw amoeba lysate, resolved by IEF or starch gel
T6 sequence (A0A8U0WP42 1-445): T3 sequence (C5NNG5 1-445) with G13E, V153I, V168I

[7] = target: T1, HXK-2; test: in-gel mannokinase activity stain after IEF; conditions: ATP; coupled with MPI, GPI and G6PDH XV, or directly with G6PDH II
[8] = target: T3, HXK-1; test: in-gel mannokinase activity stain after IEF; conditions: ATP; coupled with MPI, GPI and G6PDH XV, or directly with G6PDH II
[9] = target: T4, HXK-2; test: in-gel mannokinase activity stain after IEF; conditions: ATP; coupled with MPI, GPI and G6PDH XV, or directly with G6PDH II
[10] = target: T6, HXK-1; test: in-gel mannokinase activity stain after IEF; conditions: ATP; coupled with MPI, GPI and G6PDH XV, or directly with G6PDH II
[11] = target: T5, HXK-1; test: in-gel mannokinase activity stain after IEF; conditions: ATP; coupled with MPI, GPI and G6PDH XV, or directly with G6PDH II
[12] = target: T2, HXK-2; test: in-gel mannokinase activity stain after IEF; conditions: ATP; coupled with MPI, GPI and G6PDH XV, or directly with G6PDH II

T5 sequence (O09487 entry or part of it): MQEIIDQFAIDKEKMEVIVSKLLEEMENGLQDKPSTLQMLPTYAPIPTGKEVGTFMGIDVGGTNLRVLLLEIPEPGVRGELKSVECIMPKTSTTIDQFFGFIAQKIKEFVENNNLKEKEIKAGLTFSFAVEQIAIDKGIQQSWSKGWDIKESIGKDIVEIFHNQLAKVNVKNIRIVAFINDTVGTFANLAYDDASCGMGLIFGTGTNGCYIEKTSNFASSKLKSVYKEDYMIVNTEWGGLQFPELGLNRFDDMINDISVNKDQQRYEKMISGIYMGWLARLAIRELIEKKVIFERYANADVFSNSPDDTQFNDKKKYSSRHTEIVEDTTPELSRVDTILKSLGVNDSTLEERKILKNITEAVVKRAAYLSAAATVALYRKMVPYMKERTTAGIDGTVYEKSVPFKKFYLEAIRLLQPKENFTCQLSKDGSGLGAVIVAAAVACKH

SMILES | in-gel glucokinase activity stain after IEF or starch gel [1] | in-gel glucokinase activity stain after IEF or starch gel [2] | in-gel glucokinase activity stain after IEF or starch gel [3] | in-gel glucokinase activity stain after IEF or starch gel [4] | in-gel glucokinase activity stain after IEF or starch gel [5] | in-gel glucokinase activity stain after IEF or starch gel [6] | in-gel mannokinase activity stain after IEF [7] | in-gel mannokinase activity stain after IEF [8] | in-gel mannokinase activity stain after IEF [9] | in-gel mannokinase activity stain after IEF [10] | in-gel mannokinase activity stain after IEF [11] | in-gel mannokinase activity stain after IEF [12]
OC[C@H]1OC(O)[C@H](O)[C@@H](O)[C@@H]1O (stereo partly drawn) [glucose] | substrate specificity of the HXKs of the six strains of Entamoeba spp. to phosphorylated glucose | substrate specificity of the HXKs of the six strains of Entamoeba spp. to phosphorylated glucose | substrate specificity of the HXKs of the six strains of Entamoeba spp. to phosphorylated glucose | substrate specificity of the HXKs of the six strains of Entamoeba spp. to phosphorylated glucose | substrate specificity of the HXKs of the six strains of Entamoeba spp. to phosphorylated glucose | substrate specificity of the HXKs of the six strains of Entamoeba spp. to phosphorylated glucose | – | – | – | – | – | –
OC[C@H]1OC(O)[C@@H](O)[C@@H](O)[C@@H]1O (stereo partly drawn) [mannose] | – | – | – | – | – | – | no differences in mannokinase activity were observed between the isoenzymes HXK-1 and HXK-2 | no differences in mannokinase activity were observed between the isoenzymes HXK-1 and HXK-2 | no differences in mannokinase activity were observed between the isoenzymes HXK-1 and HXK-2 | no differences in mannokinase activity were observed between the isoenzymes HXK-1 and HXK-2 | no differences in mannokinase activity were observed between the isoenzymes HXK-1 and HXK-2 | no differences in mannokinase activity were observed between the isoenzymes HXK-1 and HXK-2
